{
  "source": "patent US20080300231A1",
  "about": "“Antibacterial amide macrocycles VI” (priority 2005, published 2008)",
  "assay_type_in_all_cases": "cell-based",
  "key": {"S. aureus 133": {"tested_on": "S. aureus 133", "test": "Minimum inhibitory concentration (MIC), S. aureus 133", "conditions": "S. aureus 133", "method": "(§1) Determination of the Minimum Inhibitory Concentration (MIC)\n(§2) The minimum inhibitory concentration (MIC) is the minimum concentration of an antibiotic with which the growth of a test microbe is inhibited over 18-24 h. The inhibitor concentration can in these cases be determined by standard microbiological methods (see, for example, The National Committee for Clinical Laboratory Standards. Methods for dilution antimicrobial susceptibility tests for bacteria that grow aerobically; approved standard-fifth edition. NCCLS document M7-A5 [ISBN 1-56238-394-9]. NCCLS, 940 West Valley Road, Suite 1400, Wayne, Pa. 19087-1898 USA, 2000). The MIC of the compounds of the invention is determined in the liquid dilution test on the 96-well microtitre plate scale. The bacterial microbes are cultivated in a minimal medium (18.5 mM Na2HPO4, 5.7 mM KH2PO4, 9.3 mM NH4Cl, 2.8 mM MgSO4, 17.1 mM NaCl, 0.033 μg/ml of thiamine hydrochloride, 1.2 μg/ml of nicotinic acid, 0.003 μg/ml of biotin, 1% glucose, 25 μg/ml of each proteinogenic amino acid with the exception of phenylalanine; [H.-P. Kroll; unpublished]) with addition of 0.4% BH broth (test medium). In the case of Enterococcus faecium L4001, heat-inactivated fetal calf serum (FCS; GibcoBRL, Germany) is added to the test medium in a final concentration of 10%. Overnight cultures of the test microbes are diluted to an OD578 of 0.001 (to 0.01 in the case of enterococci) in fresh test medium, and incubated 1:1 with dilutions of the test substances (1:2 dilution steps) in test medium (200 μl final volume). The cultures are incubated at 37° C. for 18-24 hours; enterococci in the presence of 5% CO2\n(§3) The lowest substance concentration in each case at which no visible bacterial growth occurs any more is defined as the MIC.\n(§4) Alternative Method for Determining the Minimum Inhibitory Concentration (MIC)\n(§5) The minimum inhibitory concentration (MIC) is the minimum concentration of an antibiotic with which the growth of a test microbe is inhibited over 18-24 h. The inhibitor concentration can in these cases be determined by standard microbiological methods with modified medium in an agar dilution test (see, for example, The National Committee for Clinical Laboratory Standards. Methods for dilution antimicrobial susceptibility tests for bacteria that grow aerobically; approved standard-fifth edition. NCCLS document M7-A5 [ISBN 1-56238-394-9]. NCCLS, 940 West Valley Road, Suite 1400, Wayne, Pa. 19087-1898 USA, 2000). The bacterial microbes are cultivated on 1.5% agar plates which contain 20% defibrinated horse blood. The test microbes, which are incubated overnight on Columbia blood agar plates (Becton-Dickinson), are diluted in PBS, adjusted to a microbe count of about 5×10^5 microbes/ml and placed dropwise (1-3 μl) on test plates. The test substances comprise different dilutions of the test substances (1:2 dilution steps). The cultures are incubated at 37° C. in the presence of 5% CO2 for 18-24 hours.\n(§6) The lowest substance concentration in each case at which no visible bacterial growth occurred any more is defined as the MIC and is reported in μg/ml."}, "[1]": {"tested_on": "Enterococcus faecium L4001", "test": "Minimum inhibitory concentration (MIC), E. faecium L4001", "conditions": "E. faecium L4001; test medium with 10% FCS", "method": "as §1, §2, §3, §4, §5, §6"}, "S. aureus RN4220": {"tested_on": "S. aureus RN4220", "test": "Resistance rate of S. aureus RN4220 on biphenomycin B agar plate", "conditions": "agar plate containing 2 μg/ml biphenomycin B (10×MIC), 37° C. overnight", "method": "The S. aureus strain RN4220Bi^R is isolated in vitro. […] Whereas about 1×10^7 cells grow on the antibiotic-free plate, about 100 colonies grow on the antibiotic-containing plate, corresponding to a resistance rate of 1×10^5. Some of the colonies grown on the antibiotic-containing plate are tested for the biphenomycin B MIC. One colony with a MIC of >50 μM is selected for further use, and the strain is referred to as RN4220Bi^R."}},
  "data": [
    {"smiles": "NC[C@H](O)C[C@@H]1NC(=O)[C@@H](N)Cc2cc(ccc2O)-c2ccc(O)c(c2)C[C@@H](C(=O)O)NC1=O", "note": "[Biphenomycin B, biphenomycin B, reference compound]", "values": [
      {"measurement": "MIC S. aureus 133", "setting": "S. aureus 133", "result": "<0.03", "unit": "mg/L"},
      {"measurement": "MIC E. faecium L4001", "setting": "[1]", "result": 0.5, "unit": "mg/L"},
      {"measurement": "resistance rate", "setting": "S. aureus RN4220", "result": "1×10^5"}
    ]}
  ]
}
